Laboratory results: patent publication US20250129092A1, “COMPOUNDS USEFUL IN MODULATION OF AHR SIGNALLING” (JAGUAHR THERAPEUTICS PTE LTD, priority 2021, published 2025)
≈ marks a conversion by molar mass, not a printed value.

Legend:
Hepatocytes Clint (m) = type: in vitro ADME; conditions: mouse
AhR [1] = molecular target: T1, AhR (Homo sapiens, UniProt P35869); assay: AhR antagonism in human PBMCs - inhibition of IL-22 release; type: cell-based; parameters: endogenous in cells; conditions: human PBMCs activated with CD3/CD28 agonist mixture, 72 hrs, IL-22 ELISA; average; read-out: hPBMC Inhibition of CD3/CD28 induced IL-22 release: av. pIC50 (converted)
T1 sequence (P35869 11-848): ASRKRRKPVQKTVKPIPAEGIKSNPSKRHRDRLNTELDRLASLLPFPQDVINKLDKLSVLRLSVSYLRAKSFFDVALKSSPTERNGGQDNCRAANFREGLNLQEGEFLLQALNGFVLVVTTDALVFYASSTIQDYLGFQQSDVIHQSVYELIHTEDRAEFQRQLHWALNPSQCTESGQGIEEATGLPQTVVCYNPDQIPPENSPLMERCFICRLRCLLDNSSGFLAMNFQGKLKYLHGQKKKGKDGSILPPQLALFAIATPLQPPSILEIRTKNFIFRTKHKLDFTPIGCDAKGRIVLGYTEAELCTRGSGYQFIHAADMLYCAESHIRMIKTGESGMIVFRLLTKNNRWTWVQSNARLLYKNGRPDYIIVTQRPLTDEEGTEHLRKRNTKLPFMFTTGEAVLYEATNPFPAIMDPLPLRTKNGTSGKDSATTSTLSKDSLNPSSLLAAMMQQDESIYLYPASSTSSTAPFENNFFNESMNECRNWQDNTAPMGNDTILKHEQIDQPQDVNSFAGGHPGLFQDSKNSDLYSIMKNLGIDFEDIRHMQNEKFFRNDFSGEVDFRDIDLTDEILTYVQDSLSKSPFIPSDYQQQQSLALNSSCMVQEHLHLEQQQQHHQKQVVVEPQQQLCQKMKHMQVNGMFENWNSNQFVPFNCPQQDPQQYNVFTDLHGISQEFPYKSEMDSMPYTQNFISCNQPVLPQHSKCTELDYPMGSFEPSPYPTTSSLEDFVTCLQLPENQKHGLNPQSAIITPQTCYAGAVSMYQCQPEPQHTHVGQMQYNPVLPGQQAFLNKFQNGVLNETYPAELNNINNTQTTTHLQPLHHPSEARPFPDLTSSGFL
Outline: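 Human PBMCs (1×10^6 cells/ml, 100,000 per well) activated with CD3/CD28 agonist (TransAct); seven compound concentrations added 1 h later (0.2% DMSO final). After 72 h at 37 °C, IL-22 in medium measured by ELISA.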

CYP 3A4 = CYP 3A4 (Homo sapiens, UniProt P08684); assay: CYP 3A4; type: in vitro ADME
Hepatocytes Clint (Hu) = type: in vitro ADME; conditions: human
AhR [2] = molecular target: T1, AhR; assay: AhR antagonism in U937 cells (Promega P450-Glo assay); type: cell-based; parameters: endogenous in cells; host or cells: U937 cells; conditions: CYP1A1 activity readout (Luciferin-CEE), head names VAF347, average, read-out: U937 Antagonist pIC50-VAF347: av. pIC50 (converted)
Outline: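 Human U937 histiocytic lymphoma cells were seeded in Ultraculture serum free media (Lonza) at 100,000 cells per well in round bottom 96 well plates and exposed to seven test compound concentrations for 24 hrs at 37° C., ≥85% humidity, 5% CO2. AhR antagonism was measured as CYP1A1 activity. After removing supernatant, Luciferin-CEE ([Final] 83 μM) was added for 3 hrs. Detection reagent stopped the reaction, and luminescence was read 20 minutes later.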

CYP 2C19 = CYP 2C19 (Homo sapiens, UniProt P33261); assay: CYP 2C19; type: in vitro ADME
Kinetic solubility = type: physicochemical; conditions: kinetic from dmso stock
[3] = Caco-2 permeability / efflux; type: in vitro ADME; conditions: human
CYP 2C9 = CYP 2C9 (Homo sapiens, UniProt P11712); assay: CYP 2C9; type: in vitro ADME
hERG = hERG (Homo sapiens, UniProt Q12809); assay: hERG
ChromLogD = type: physicochemical
CYP 1A2 = molecular target: T2, CYP 1A2 (Homo sapiens, UniProt P05177); assay: CYP 1A2; type: in vitro ADME
T2 sequence (P05177 1-516): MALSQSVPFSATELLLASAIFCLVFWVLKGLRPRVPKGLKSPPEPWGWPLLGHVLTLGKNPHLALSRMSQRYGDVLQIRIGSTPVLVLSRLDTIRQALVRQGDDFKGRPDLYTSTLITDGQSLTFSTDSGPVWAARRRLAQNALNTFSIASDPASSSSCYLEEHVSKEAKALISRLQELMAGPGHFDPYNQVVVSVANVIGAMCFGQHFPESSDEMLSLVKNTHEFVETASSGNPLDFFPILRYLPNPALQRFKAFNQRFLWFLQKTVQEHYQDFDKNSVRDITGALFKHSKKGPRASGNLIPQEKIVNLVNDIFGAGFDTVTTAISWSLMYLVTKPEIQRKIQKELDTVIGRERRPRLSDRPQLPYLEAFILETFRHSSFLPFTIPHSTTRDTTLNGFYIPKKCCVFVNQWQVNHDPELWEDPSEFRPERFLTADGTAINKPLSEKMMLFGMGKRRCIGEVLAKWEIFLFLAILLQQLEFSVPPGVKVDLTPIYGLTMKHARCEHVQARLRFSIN

CYP 2D6 = CYP 2D6 (Homo sapiens, UniProt P10635); assay: CYP 2D6; type: in vitro ADME
CYP 2D6, sequence (P10635 whole entry): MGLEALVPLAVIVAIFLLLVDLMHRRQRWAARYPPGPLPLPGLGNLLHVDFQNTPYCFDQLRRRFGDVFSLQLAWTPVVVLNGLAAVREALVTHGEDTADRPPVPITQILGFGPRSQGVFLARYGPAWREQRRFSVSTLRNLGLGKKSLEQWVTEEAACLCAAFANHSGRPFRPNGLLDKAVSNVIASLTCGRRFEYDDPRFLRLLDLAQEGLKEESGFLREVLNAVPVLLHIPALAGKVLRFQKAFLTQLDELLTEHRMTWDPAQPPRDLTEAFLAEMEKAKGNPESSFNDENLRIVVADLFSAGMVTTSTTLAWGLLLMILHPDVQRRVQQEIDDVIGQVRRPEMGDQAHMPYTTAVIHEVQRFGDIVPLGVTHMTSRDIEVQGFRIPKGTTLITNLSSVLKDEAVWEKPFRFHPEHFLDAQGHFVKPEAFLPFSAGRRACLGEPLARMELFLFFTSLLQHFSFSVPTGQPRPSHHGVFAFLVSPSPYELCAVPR

CYP 3A4, sequence (P08684 whole entry, species assumed): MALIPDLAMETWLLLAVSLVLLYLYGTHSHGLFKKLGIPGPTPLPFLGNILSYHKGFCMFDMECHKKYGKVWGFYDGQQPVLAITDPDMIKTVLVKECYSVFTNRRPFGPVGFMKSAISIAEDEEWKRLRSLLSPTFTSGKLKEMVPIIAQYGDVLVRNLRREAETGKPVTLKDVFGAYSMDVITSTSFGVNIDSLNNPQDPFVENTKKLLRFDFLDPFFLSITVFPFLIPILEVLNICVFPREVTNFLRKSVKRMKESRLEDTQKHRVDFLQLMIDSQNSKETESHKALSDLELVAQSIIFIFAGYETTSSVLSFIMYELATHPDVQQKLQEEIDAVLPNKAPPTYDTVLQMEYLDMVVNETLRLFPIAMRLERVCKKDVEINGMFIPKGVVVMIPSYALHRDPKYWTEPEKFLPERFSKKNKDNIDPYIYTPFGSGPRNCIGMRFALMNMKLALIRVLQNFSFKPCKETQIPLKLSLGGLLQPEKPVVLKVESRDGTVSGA
hERG, sequence (Q12809 whole entry): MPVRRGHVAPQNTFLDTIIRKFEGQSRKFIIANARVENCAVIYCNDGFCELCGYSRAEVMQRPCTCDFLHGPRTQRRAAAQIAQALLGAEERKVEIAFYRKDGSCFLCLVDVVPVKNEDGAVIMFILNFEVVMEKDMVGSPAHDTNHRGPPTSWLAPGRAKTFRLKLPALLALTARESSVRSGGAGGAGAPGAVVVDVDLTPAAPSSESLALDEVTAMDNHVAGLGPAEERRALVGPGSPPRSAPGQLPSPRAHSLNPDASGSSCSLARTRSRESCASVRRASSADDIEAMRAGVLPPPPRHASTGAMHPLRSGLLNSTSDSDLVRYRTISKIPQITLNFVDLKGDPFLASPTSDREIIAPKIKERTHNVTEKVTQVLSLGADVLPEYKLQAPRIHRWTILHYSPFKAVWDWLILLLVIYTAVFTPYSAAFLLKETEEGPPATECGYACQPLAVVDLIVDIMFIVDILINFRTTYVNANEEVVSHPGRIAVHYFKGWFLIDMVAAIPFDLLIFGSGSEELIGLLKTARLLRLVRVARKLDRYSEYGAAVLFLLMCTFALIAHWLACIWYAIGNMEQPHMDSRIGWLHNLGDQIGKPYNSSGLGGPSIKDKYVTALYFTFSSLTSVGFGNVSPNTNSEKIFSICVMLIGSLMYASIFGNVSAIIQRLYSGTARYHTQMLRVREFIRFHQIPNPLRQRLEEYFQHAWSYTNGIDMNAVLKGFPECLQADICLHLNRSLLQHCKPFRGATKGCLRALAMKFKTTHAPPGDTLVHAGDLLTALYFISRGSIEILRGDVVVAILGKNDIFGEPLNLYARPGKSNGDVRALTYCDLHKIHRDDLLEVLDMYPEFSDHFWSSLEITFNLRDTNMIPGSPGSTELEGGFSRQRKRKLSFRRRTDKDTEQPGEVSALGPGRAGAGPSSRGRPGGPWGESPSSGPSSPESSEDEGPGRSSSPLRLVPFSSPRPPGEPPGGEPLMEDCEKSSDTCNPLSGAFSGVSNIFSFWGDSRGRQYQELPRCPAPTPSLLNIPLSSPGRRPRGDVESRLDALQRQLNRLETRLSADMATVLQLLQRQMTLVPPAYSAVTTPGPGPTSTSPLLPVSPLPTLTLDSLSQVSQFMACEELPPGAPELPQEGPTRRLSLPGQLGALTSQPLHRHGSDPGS
CYP 2C19, sequence (P33261 whole entry): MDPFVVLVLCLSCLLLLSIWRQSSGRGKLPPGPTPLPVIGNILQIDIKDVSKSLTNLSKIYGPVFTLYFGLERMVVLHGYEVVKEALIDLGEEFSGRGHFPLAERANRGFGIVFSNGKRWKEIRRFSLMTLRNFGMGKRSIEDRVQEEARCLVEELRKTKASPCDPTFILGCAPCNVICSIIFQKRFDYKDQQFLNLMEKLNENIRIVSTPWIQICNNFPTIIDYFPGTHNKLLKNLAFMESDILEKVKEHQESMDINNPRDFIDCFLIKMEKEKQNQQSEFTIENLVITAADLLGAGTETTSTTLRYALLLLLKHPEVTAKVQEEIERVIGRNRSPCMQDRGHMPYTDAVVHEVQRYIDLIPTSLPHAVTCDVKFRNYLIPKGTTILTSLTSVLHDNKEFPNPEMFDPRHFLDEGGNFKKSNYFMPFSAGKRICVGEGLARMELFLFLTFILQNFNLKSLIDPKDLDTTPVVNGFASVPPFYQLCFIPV
CYP 2C9, sequence (P11712 whole entry): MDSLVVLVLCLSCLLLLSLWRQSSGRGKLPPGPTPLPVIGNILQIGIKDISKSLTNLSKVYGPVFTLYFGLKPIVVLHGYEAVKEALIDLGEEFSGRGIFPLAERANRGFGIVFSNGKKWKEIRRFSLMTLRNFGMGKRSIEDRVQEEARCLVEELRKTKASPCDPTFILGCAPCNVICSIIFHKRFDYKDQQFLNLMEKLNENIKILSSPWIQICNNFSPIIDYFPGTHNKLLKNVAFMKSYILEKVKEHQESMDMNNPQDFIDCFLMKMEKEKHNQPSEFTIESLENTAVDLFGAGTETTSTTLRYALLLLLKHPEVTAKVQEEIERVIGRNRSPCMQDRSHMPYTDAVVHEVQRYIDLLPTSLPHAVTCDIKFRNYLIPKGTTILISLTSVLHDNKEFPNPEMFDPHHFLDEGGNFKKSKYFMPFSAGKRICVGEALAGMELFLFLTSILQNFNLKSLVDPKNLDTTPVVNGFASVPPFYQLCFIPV

## O=c1[nH]cccc1-c1nc2c(c(OCCc3c[nH]c4ccccc34)n1)OCCN2 [Example 25, 3-(4-(2-(1H-indol-3-yl)ethoxy)-7,8-dihydro-6H-pyrimido[5,4-b][1,4]oxazin-2-yl)pyridin-2(1H)-one]
Hepatocytes Clint (m)
  hepatocyte CLint: 115 µL/min/1e6 cells
AhR [1]
  IC50: 1.7 nM
CYP 3A4
  IC50: 7200 nM
CYP 3A4; CYP 3A4 versus U937
  fold difference (3A4/U937): 1986
Hepatocytes Clint (Hu)
  hepatocyte CLint: 7.1 µL/min/1e6 cells
AhR [2]
  IC50: 2.69 nM
CYP 2C19
  IC50: 43400 nM
Kinetic solubility
  solubility kinetic: 119 µM (≈ 46.3 µg/mL)
[3]
  efflux ratio: 4
[3]; A to B
  Papp A→B: 7.16 ×10⁻⁶ cm/s
CYP 2C9
  IC50: 4700 nM
hERG
  IC50: 7300 nM
ChromLogD
  chromatographic logD: 2.39
CYP 1A2
  IC50: 45300 nM
CYP 2D6
  IC50: 50000 nM

## O=c1[nH]cccc1-c1nc2c(c(NCCc3c[nH]c4cc(F)ccc34)n1)OCCN2 [Example 21, 3-[4-[2-(6-fluoro-1H-indol-3-yl)ethylamino]-7,8-dihydro-6H-pyrimido[5,4-b][1,4]oxazin-2-yl]-1H-pyridin-2-one]
AhR [1]
  IC50: 1.45 nM
AhR [2]
  IC50: 2.75 nM

## Fc1cncc(-c2nc3c(c(N[C@@H]4CCc5[nH]c6ccccc6c5C4)n2)OCCN3)c1 [Example 4, 2-(5-fluoro-3-pyridyl)-N-[(3R)-2,3,4,9-tetrahydro-1H-carbazol-3-yl]-7,8-dihydro-6H-pyrimido[5,4-b][1,4]oxazin-4-amine]
AhR [1]
  IC50: 83.2 nM
AhR [2]
  IC50: 16.2 nM

## Cc1ncc(-c2nc(N[C@@H]3CCc4[nH]c5ccccc5c4C3)c3c(n2)N(CCN(C)C)[C@H](CO)CO3)s1 [Example 36, [(7R)-8-[2-(dimethylamino)ethyl]-2-(2-methylthiazol-5-yl)-4-[[(3R)-2,3,4,9-tetrahydro-1H-carbazol-3-yl]amino]-6,7-dihydropyrimido[5,4-b][1,4]oxazin-7-yl]methanol]
AhR [1]
  IC50: 1070 nM
AhR [2]
  IC50: > 1000 nM

## COC[C@@H]1COc2c(NCCc3c[nH]c4ccccc34)nc(-c3cccc(F)c3)nc2N1 [Example 57, (7R)-2-(3-fluorophenyl)-N-[2-(1H-indol-3-yl)ethyl]-7-(methoxymethyl)-7,8-dihydro-6H-pyrimido[5,4-b][1,4]oxazin-4-amine]
AhR [1]
  IC50: 2 nM
AhR [2]
  IC50: 3.09 nM
